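GI50 = concentration required for 50% inhibition of growth. At the TGI there is no net growth.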
Key:
Assay in all cases: DTP human tumour cell line panel, 384-well format
HL-60(TB) leukemia = test system: HL-60(TB) leukemia
786-0 renal = test system: 786-0 renal
HCT-15 colon = test system: HCT-15 colon
LOX IMVI melanoma = test system: LOX IMVI melanoma
MDA-MB-468 breast = test system: MDA-MB-468 breast
NCI-H23 lung = test system: NCI-H23 lung
NCI-H226 lung = test system: NCI-H226 lung
DU-145 prostate = test system: DU-145 prostate
A549 NSCLC = test system: A549 NSCLC
MDA-MB-231 breast = test system: MDA-MB-231 breast
SR leukemia = test system: SR leukemia
HOP-92 NSCLC = test system: HOP-92 NSCLC
EKVX NSCLC = test system: EKVX NSCLC
T-47D breast = test system: T-47D breast
SF-295 CNS = test system: SF-295 CNS
UO-31 renal = test system: UO-31 renal
MCF7 breast = test system: MCF7 breast
MOLT-4 leukemia = test system: MOLT-4 leukemia
NCI-H522 lung = test system: NCI-H522 lung
HT29 colon = test system: HT29 colon
K-562 leukemia = test system: K-562 leukemia
CCRF-CEM leukemia = test system: CCRF-CEM leukemia
RPMI-8226 leukemia = test system: RPMI-8226 leukemia
PC-3 prostate = test system: PC-3 prostate
COLO 205 colon = test system: COLO 205 colon
NCI-H322M lung = test system: NCI-H322M lung
OVCAR-8 ovarian = test system: OVCAR-8 ovarian
NCI/ADR-RES ovarian = test system: NCI/ADR-RES ovarian
RXF 393 renal = test system: RXF 393 renal
SK-MEL-5 melanoma = test system: SK-MEL-5 melanoma
UACC-257 melanoma = test system: UACC-257 melanoma
M14 melanoma = test system: M14 melanoma
OVCAR-4 ovarian = test system: OVCAR-4 ovarian
BT-549 breast = test system: BT-549 breast
MALME-3M melanoma = test system: MALME-3M melanoma

Compound `CC(C)(O)c1ccc(N2CCN(c3nnc(Cc4ccccc4)c4ccccc34)CC2)nc1` has a GI50 (HL-60(TB) leukemia) of 2.68 µM, a TGI (HL-60(TB) leukemia) of 5.16 µM and a GI50 ([…]-0 renal) of 6.92 µM. It also gave a GI50 (HCT-15 colon) of 7.34 µM, a GI50 (LOX IMVI melanoma) of 9.67 µM and a GI50 (MDA-MB-468 breast) of 1.62 µM. For the same compound, the TGI (MDA-MB-468 breast) was 4.37 µM, the GI50 (NCI-H23 lung) was 4.38 µM and the GI50 (NCI-H226 lung) was 6.6 µM. The GI50 (DU-145 prostate) was 5.86 µM, the GI50 (A549 NSCLC) was 5.79 µM and the GI50 (MDA-MB-231 breast) was 3.22 µM. For the same compound, the GI50 (SR leukemia) was 2.08 µM, the TGI (SR leukemia) was 5.25 µM and the GI50 (HOP-92 NSCLC) was 8.09 µM. It also gave a GI50 (EKVX NSCLC) of 4.39 µM, a GI50 (T-47D breast) of 1.92 µM and a TGI (T-47D breast) of 6.25 µM. The GI50 (SF-295 CNS) was 7.65 µM, the GI50 (UO-31 renal) was 6.13 µM and the GI50 (MCF7 breast) was 7.42 µM. The GI50 (MOLT-4 leukemia) was 2.07 µM, the TGI (MOLT-4 leukemia) was 3.86 µM and the GI50 (NCI-H522 lung) was 6.23 µM. For the same compound, the GI50 (HT29 colon) was 9.38 µM, the GI50 (K-562 leukemia) was 4.85 µM and the GI50 (CCRF-CEM leukemia) was 3.83 µM. The GI50 (RPMI-8226 leukemia) was 2.18 µM, the TGI (RPMI-8226 leukemia) was 5.27 µM and the GI50 (PC-3 prostate) was 9.46 µM. For the same compound, the GI50 (COLO 205 colon) was 4.39 µM, the GI50 (NCI-H322M lung) was 8.82 µM and the GI50 (OVCAR-8 ovarian) was 5.64 µM. For the same compound, the GI50 (NCI/ADR-RES ovarian) was 3.02 µM, the GI50 (RXF 393 renal) was 6.29 µM and the GI50 (SK-MEL-5 melanoma) was 2.17 µM. It also gave a TGI (SK-MEL-5 melanoma) of 4.19 µM, a GI50 (UACC-257 melanoma) of 5.3 µM and a GI50 (M14 melanoma) of 8.59 µM. It also gave a GI50 (OVCAR-4 ovarian) of 3.75 µM, a GI50 (BT-549 breast) of 6.9 µM and a GI50 (MALME-3M melanoma) of 3.24 µM.

Source: PubChem BioAssay (NCI)
